Experimental data: paper PMC9852173, “[^111In]In-CP04 as a novel cholecystokinin-2 receptor ligand with theranostic potential in patients with progressive or metastatic medullary thyroid cancer: final results of a GRAN-T-MTC Phase I clinical trial” (European Journal of Nuclear Medicine and Molecular Imaging, 2022)
Values belong to the compound of their own block, whether it stands above or below them.

Legend:
[1] = in vivo
Protocol: On the WBS planar imaging at 1, 4, 24, and 48 h (including standard activity) and quantitative SPECT/CT imaging at 4 and 24 h, the regions of interest (ROI) were drawn over the kidneys and over the lesions when visible. The counts in the ROIs were quantified to activity by cross-calibration with the activity determined in the corresponding volumes of interest (VOIs) drawn on the quantitative SPECT/CT image at 24 h. Time-activity curves were determined by fitting exponential curves through the uptake data. Time integrated activity coefficients (TIAC) were calculated for ^111In and ^177Lu by integration of the TIACs multiplied with their physical decaty functions. The absorbed dose per unit activity in each organ was determined by multiplication with the ^111In and ^177Lu S-values according to the MIRD formalism. […] The effect on the kidney absorbed dose after co-administration of the nephroprotective agent Gelofusine was evaluated. All dosimetry calculations were performed with the Hermes-OLINDA v2.1 hybrid 2D dosimetry software.

MTC [2] = settings: meta-analysis; cited from earlier work
Excerpt: It is well accepted that the molecular imaging modalities outperform conventional imaging (US, CT, and MRI in the present study) in the setting of recurrent disease, in particular PET/CT imaging with [^18F]F-DOPA [19–21].

MTC [3] = experiment: [18F]FDG PET/CT restaging prior to enrolment; assay type: in vivo, human; settings: CEA 80 to 2087 ng/mL
Excerpt: Sixteen patients with histologically proven and advanced MTC were enrolled in the study based on the specific inclusion and exclusion criteria. [^18F]FDG PET/CT, ceCT, or MRI imaging (initiated at Ct concentrations above 150 pg/mL or clinical suspicion of disease at a specific site) was positive in 12 patients; in four, short calcitonin doubling time (CtDT) with negative conventional imaging (CT of the neck/thorax, abdomen; [^18F]FDG PET/CT) was present.
It is well accepted that the molecular imaging modalities outperform conventional imaging (US, CT, and MRI in the present study) in the setting of recurrent disease, in particular PET/CT imaging with [^18F]F-DOPA [19–21]. […] With patient-based detection rate of over 80%, [^111In]In-CP04 slightly outperformed conventional and molecular imaging modalities (detection rate of 75%) in the present study. […] However, the patient population in our study was highly preselected and small, which likely affected the results; moreover, the reported detection rate in the mentioned meta-analysis was likely affected by the relatively low Ct concentrations (above 150 pg/mL in only 73% of patients). […]

[4] = in vivo; remark: listed apart in the source
Protocol: The duration of [^111In]In-CP04 administration with the low and high mass amount was 5 min and 30 min, respectively. During the injection of the IMP, a dynamic scan of the kidneys and stomach was performed for 30 min (anterior and posterior acquisition). The imaging protocol included a mandatory whole-body scan (WBS) at 1 h, 4 h, 24 h, and 48 h p.i. (table shift speed 12 cm/min). A quantitative SPECT/CT scan of the abdomen was performed at 24 h p.i. as well as an additional non-quantitative SPECT/CT scan of the area where pathological lesions were detected during WBS, if the scan duration was tolerated by the patient. Gelofusine (B. Braun, Melsungen, Germany) was administered as an infusion of 1 mL/kg body weight over 10 min followed by a 3-h infusion of 0.02 mL/kg/min after the injection of the IMPD. Physiological parameters (heart rate, blood pressure, oxygen saturation) were repeatedly measured during and after the [^111In]In-CP04 infusion as per study protocol.
During the [^111In]In-CP04 administration blood samples for dosimetry and pharmacokinetic purposes were taken at the set time intervals according to the study protocol: biodistribution and dosimetry data were acquired based on serial planar and SPECT/CT images, and blood and urine collection at regular time intervals. Urine samples were collected up to 24 h after the tracer injection to determine the bladder wall absorbed dose. On the WBS planar imaging at 1, 4, 24, and 48 h (including standard activity) and quantitative SPECT/CT imaging at 4 and 24 h, the regions of interest (ROI) were drawn over the kidneys and over the lesions when visible. The counts in the ROIs were quantified to activity by cross-calibration with the activity determined in the corresponding volumes of interest (VOIs) drawn on the quantitative SPECT/CT image at 24 h. Time-activity curves were determined by fitting exponential curves through the uptake data. Time integrated activity coefficients (TIAC) were calculated for ^111In and ^177Lu by integration of the TIACs multiplied with their physical decaty functions. The absorbed dose per unit activity in each organ was determined by multiplication with the ^111In and ^177Lu S-values according to the MIRD formalism. The blood time-activity curve was used to estimate the absorbed dose to the bone marrow. The activity concentration in the bone marrow was considered to be equal to the blood activity concentration. The activity and volumes of the urine samples were used to determine the urinary clearance rate, and with the dynamic bladder model, the TIAC in the bladder and the absorbed dose to the bladder wall were determined. The effect on the kidney absorbed dose after co-administration of the nephroprotective agent Gelofusine was evaluated. […]

[5] = set-up: species or system human; settings: in vivo
Protocol: The primary objective of the trial was the evaluation of the safety of the administration of [^111In]In-CP04 at low mass amount of 10 μg CP04 and at high mass amount of 50 μg CP04 radiolabelled with 200±10% MBq of ^111In. Therefore, the definition of the type, frequency, severity, timing, and relation to the studied radiopharmaceutical administration of Adverse Events assessed by CTCAE v4.0 was used as primary endpoint to define the safety and tolerability of [^111In]In-CP04.
Detailed physical examinations with vital sign assessment, 12-lead ECG, and laboratory testing were performed to investigate the safety of intravenous administration of [^111In]In-CP04. The overall safety profile of the tested CCK-2/gastrin receptor ligand as characterized by timing, type, frequency, severity of adverse events (AE), and laboratory abnormalities was based on Common Terminology Criteria for Adverse Events (CTCAE) version 4.0. Since this was a Phase I clinical trial, the project was assumed as having a high-risk potential for the patient, and therefore, special care was taken with the monitoring of the study. In total, eight control visits were carried out over 4 months of the follow-up with physical examination, laboratory testing, and ECG. Additionally, Ct and proCt concentrations were measured after each [^111In]In-CP04 injection at predefined time points (0, 2, 5, 10, 20 min).
(table shift speed 12 cm/min).

projected 177Lu absorbed dose to the kidneys [1]: 0.12 Gy/GBq
SMILES: CSCC[C@H](NC(=O)[C@H](Cc1c[nH]c2ccccc12)NC(=O)CNC(=O)[C@H](Cc1ccc(O)cc1)NC(=O)[C@H](C)NC(=O)[C@@H](CCC(=O)O)NC(=O)[C@@H](CCC(=O)O)NC(=O)[C@@H](CCC(=O)O)NC(=O)[C@@H](CCC(=O)O)NC(=O)[C@@H](CCC(=O)O)NC(=O)[C@@H](CCC(=O)O)NC(=O)CN1CCN(CC(=O)O)CCN(CC(=O)O)CCN(CC(=O)O)CC1)C(=O)N[C@@H](CC(=O)O)C(=O)N[C@@H](Cc1ccccc1)C(N)=O [CP04, DOTA-(DGlu)6-Ala-Tyr-Gly-Trp-Met-Asp-Phe-NH2]

SMILES: N[C@@H](Cc1cc(O)c(O)cc1[18F])C(=O)O [[^18F]F-DOPA]
pooled patient-based detection rate (MTC [2]): 66%

SMILES: OC[C@H]1OC(O)[C@H]([18F])[C@@H](O)[C@@H]1O (stereo partly drawn) [[^18F]FDG]
PET/CT positivity in the present series (MTC [3]): only positive in three patients

kidney absorbed dose [4]: 0.044±0.019 mSv/MBq
radiation dose for 200 MBq [4]: about 7 mSv
retention of activity in intestines, stomach and kidneys [4]: < 1 % of IA
laboratory test results during control visits [5]: did not change significantly
performance status (Karnofsky index) [5]: did not change
transient tachycardia, duration [5]: less than 5 minutes
SMILES: CSCC[C@H](NC(=O)[C@H](Cc1c[nH]c2ccccc12)NC(=O)CNC(=O)[C@H](Cc1ccc(O)cc1)NC(=O)[C@H](C)NC(=O)[C@@H](CCC(=O)O)NC(=O)[C@@H](CCC(=O)O)NC(=O)[C@@H](CCC(=O)O)NC(=O)[C@@H](CCC(=O)O)NC(=O)[C@@H](CCC(=O)O)NC(=O)[C@@H](CCC(=O)O)NC(=O)CN1CCN(CC(=O)O)CCN(CC(=O)O)CCN(CC(=O)O)CC1)C(=O)N[C@@H](CC(=O)O)C(=O)N[C@@H](Cc1ccccc1)C(N)=O [[^111In]In-CP04, [^111In]In-DOTA-(DGlu)6-Ala-Tyr-Gly-Trp-Met-Asp-Phe-NH2, metal not drawn]
organs with highest dose [4]: highest dose to urinary bladder, followed by the kidneys and stomach wall
ECG recordings [5]: No significant changes
transient tachycardia, heart rate [5]: up to 128 beats/min
